The EC50 is the concentration at which the effect is half-maximal.

Chain of human TMEM16A (TMEM16Aabc variant) (Q5XXA6 with tags, fused parts or gaps DEL476-501): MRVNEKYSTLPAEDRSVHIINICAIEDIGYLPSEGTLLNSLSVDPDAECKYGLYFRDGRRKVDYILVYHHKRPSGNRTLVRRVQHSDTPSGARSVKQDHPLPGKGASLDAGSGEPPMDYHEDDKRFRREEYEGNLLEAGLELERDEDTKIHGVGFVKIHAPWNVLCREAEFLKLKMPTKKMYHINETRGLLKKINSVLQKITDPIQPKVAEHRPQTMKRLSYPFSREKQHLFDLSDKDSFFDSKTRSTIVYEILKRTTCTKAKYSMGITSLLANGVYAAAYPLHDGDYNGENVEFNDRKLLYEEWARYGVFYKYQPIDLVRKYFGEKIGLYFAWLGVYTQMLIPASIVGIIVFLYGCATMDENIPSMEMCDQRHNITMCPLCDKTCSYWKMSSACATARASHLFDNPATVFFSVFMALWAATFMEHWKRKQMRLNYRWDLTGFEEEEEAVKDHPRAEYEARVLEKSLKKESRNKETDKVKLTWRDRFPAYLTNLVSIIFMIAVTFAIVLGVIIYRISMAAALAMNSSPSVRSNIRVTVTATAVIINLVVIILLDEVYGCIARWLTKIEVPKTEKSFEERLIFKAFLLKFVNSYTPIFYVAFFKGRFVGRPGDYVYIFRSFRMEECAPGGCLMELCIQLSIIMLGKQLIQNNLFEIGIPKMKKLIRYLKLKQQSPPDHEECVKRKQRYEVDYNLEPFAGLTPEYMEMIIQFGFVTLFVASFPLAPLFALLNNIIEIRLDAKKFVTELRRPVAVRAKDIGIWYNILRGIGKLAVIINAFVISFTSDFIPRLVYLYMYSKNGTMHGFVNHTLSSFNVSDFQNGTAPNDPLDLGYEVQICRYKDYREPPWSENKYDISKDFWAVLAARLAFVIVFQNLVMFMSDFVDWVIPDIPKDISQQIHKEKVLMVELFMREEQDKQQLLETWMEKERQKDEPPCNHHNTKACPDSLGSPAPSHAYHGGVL

The target in one assay is human TMEM16A (TMEM16Aabc variant) (Homo sapiens, UniProt Q5XXA6, DEL476-501, form not given). Description: Automated whole-cell patch clamp (Qpatch) TMEM16A potentiator assay in FRT cells stably expressing human TMEM16A. The assay is classed as cell-based. The following applies: 3.33 μM solution of test compound; percentage increase of baseline TMEM16A current. The essentials:
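FRT cells stably expressing human TMEM16Aabc were recorded by automated whole-cell patch clamp, with intracellular Ca2+ buffered for ~EC20 activation, holding −70 mV and step to +70 mV at 0.05 Hz. Compound was applied cumulatively, 5 min per concentration. Peak current increase as % of baseline was fitted to give EC50 and maximum efficacy.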
(In general: The patch-clamp technique gives a direct electrical read-out from membranes.)
As for `CC(C)(C#N)NC(=O)c1cc(NC(=O)C2CCC(F)(F)C2)ccn1` (stereo not drawn) [Example 83.3, N-(1-Cyano-1-methyl-ethyl)-4-[(3,3-difluorocyclopentanecarbonyl)amino]pyridine-2-carboxamide], the “% Potentiation @ 3.33 μM Avg” value was found to be 16%.

As to `CC(C)(C#N)NC(=O)c1cc(NC(=O)C2(C)CCCC2)ccn1` [Example 83.4, N-(1-Cyano-1-methyl-ethyl)-4-[(1-methylcyclopentanecarbonyl)amino]pyridine-2-carboxamide], the “% Potentiation @ 3.33 μM Avg” value came to 58%.

Consider `CC(C)(C#N)NC(=O)c1cc(NC(=O)CCC2CCCCC2)ccn1` [Example 83.5, N-(1-Cyano-1-methyl-ethyl)-4-(3-cyclohexylpropanoylamino)pyridine-2-carboxamide], for which the “% Potentiation @ 3.33 μM Avg” value is listed as 185%.

As to `CC(C)(C#N)NC(=O)c1cc(NC(=O)CC2CC3CCC2C3)ccn1` (stereo not drawn) [Example 83.6, 4-(2-{Bicyclo[2.2.1]heptan-2-yl}acetamido)-N-(1-cyano-1-methylethyl)pyridine-2-carboxamide], the “% Potentiation @ 3.33 μM Avg” value turned out to be 248%.

Consider `CC1(CC(=O)Nc2ccnc(C(=O)NC(C)(C)C#N)c2)CCCCC1` [Example 83.7, N-(1-Cyano-1-methyl-ethyl)-4-[[2-(1-methylcyclohexyl)acetyl]amino]pyridine-2-carboxamide], for which the “% Potentiation @ 3.33 μM Avg” value amounted to 147%.

Regarding `CC(C)(C#N)NC(=O)c1cc(NC(=O)c2cnc(C3CC3)nc2)ccn1` [Example 83.8, N-[2-[(1-Cyano-1-methyl-ethyl)carbamoyl]-4-pyridyl]-2-cyclopropyl-pyrimidine-5-carboxamide], the “% Potentiation @ 3.33 μM Avg” value turned out to be 35%.

As to `CC(C)Cc1cc(C(=O)Nc2ccnc(C(=O)NC(C)(C)C#N)c2)on1` [Example 83.9, N-[2-[(1-Cyano-1-methyl-ethyl)carbamoyl]-4-pyridyl]-3-isobutyl-isoxazole-5-carboxamide], the “% Potentiation @ 3.33 μM Avg” value stood at 18%.

On to `CC(C)(C#N)NC(=O)c1cc(NC(=O)CC2CCC(F)(F)CC2)ccn1` [Example 83.10, N-(1-Cyano-1-methyl-ethyl)-4-[[2-(4,4-difluorocyclohexyl)acetyl]amino]pyridine-2-carboxamide], for which the “% Potentiation @ 3.33 μM Avg” value came out at 62%.

For `CC(C)(C#N)NC(=O)c1cc(NC(=O)C2(Cc3ccccc3)CC2)ccn1` [Example 83.11, 4-[(1-Benzylcyclopropanecarbonyl)amino]-N-(1-cyano-1-methyl-ethyl)pyridine-2-carboxamide], the “% Potentiation @ 3.33 μM Avg” value stood at 13%.

Turning to `COc1cc(CCC(=O)Nc2ccnc(C(=O)NC(C)(C)C#N)c2)ccn1` [Example 83.13, N-(1-Cyano-1-methyl-ethyl)-4-[3-(2-methoxy-4-pyridyl)propanoylamino]pyridine-2-carboxamide], the “% Potentiation @ 3.33 μM Avg” value was -1%.

As to `Cn1nc(C(C)(C)C)cc1C(=O)Nc1ccnc(C(=O)NC(C)(C)C#N)c1` [Example 83.14, 4-[(5-tert-Butyl-2-methyl-pyrazole-3-carbonyl)amino]-N-(1-cyano-1-methyl-ethyl)pyridine-2-carboxamide], the “% Potentiation @ 3.33 μM Avg” value was 70%.

On to `CC(C)(C#N)NC(=O)c1cc(NC(=O)c2ccccc2-n2cccn2)ccn1` [Example 83.15, N-(1-Cyano-1-methyl-ethyl)-4-[(2-pyrazol-1-ylbenzoyl)amino]pyridine-2-carboxamide], for which the “% Potentiation @ 3.33 μM Avg” value is recorded as -10%.

As for `CC(C)(C#N)NC(=O)c1cc(NC(=O)c2cccc(C(F)(F)F)n2)ccn1` [Example 83.16, N-[2-[(1-Cyano-1-methyl-ethyl)carbamoyl]-4-pyridyl]-6-(trifluoromethyl)pyridine-2-carboxamide], the “% Potentiation @ 3.33 μM Avg” value is given as 60%.

`CC(C)(C#N)NC(=O)c1cc(NC(=O)c2ccc3c(c2)OCC(=O)N3)ccn1` [Example 83.17, N-[2-[(1-Cyano-1-methyl-ethyl)carbamoyl]-4-pyridyl]-3-oxo-4H-1,4-benzoxazine-7-carboxamide]: the “% Potentiation @ 3.33 μM Avg” value is 8%.

With `CCn1c(C(=O)Nc2ccnc(C(=O)NC(C)(C)C#N)c2)cc2ccccc21` [Example 83.18, N-[2-[(1-Cyano-1-methyl-ethyl)carbamoyl]-4-pyridyl]-1-ethyl-indole-2-carboxamide], the “% Potentiation @ 3.33 μM Avg” value was found to be 16%.

For `CC(C)(C#N)NC(=O)c1cc(NC(=O)c2ccnn2CC(F)(F)F)ccn1` [Example 83.19, N-(1-Cyano-1-methyl-ethyl)-4-[[2-(2,2,2-trifluoroethyl)pyrazole-3-carbonyl]amino]pyridine-2-carboxamide], the “% Potentiation @ 3.33 μM Avg” value turned out to be 28%.

Regarding `CC(C)(C#N)NC(=O)c1cc(NC(=O)c2conc2-c2ccccc2)ccn1` [Example 83.20, N-[2-[(1-Cyano-1-methyl-ethyl)carbamoyl]-4-pyridyl]-3-phenyl-isoxazole-4-carboxamide], the “% Potentiation @ 3.33 μM Avg” value is 9%.

Regarding `CC(C)(C#N)NC(=O)c1cc(NC(=O)c2cnn(Cc3ccccc3)c2)ccn1` [Example 83.21, 4-[(1-Benzylpyrazole-4-carbonyl)amino]-N-(1-cyano-1-methyl-ethyl)pyridine-2-carboxamide], the “% Potentiation @ 3.33 μM Avg” value stood at 70%.

Regarding `Cn1nc(-c2ccccc2)cc1C(=O)Nc1ccnc(C(=O)NC(C)(C)C#N)c1` [Example 83.22, N-(1-Cyano-1-methyl-ethyl)-4-[(2-methyl-5-phenyl-pyrazole-3-carbonyl)amino]pyridine-2-carboxamide], the “% Potentiation @ 3.33 μM Avg” value is on record as 85%.

For `Cc1noc(-c2ccccc2C(=O)Nc2ccnc(C(=O)NC(C)(C)C#N)c2)n1` [Example 83.23, N-(1-Cyano-1-methyl-ethyl)-4-[[2-(3-methyl-1,2,4-oxadiazol-5-yl)benzoyl]amino]pyridine-2-carboxamide], the “% Potentiation @ 3.33 μM Avg” value is reported as -11%.

Take `Cc1nn(-c2ccccc2)cc1C(=O)Nc1ccnc(C(=O)NC(C)(C)C#N)c1` [Example 83.24, N-(1-Cyano-1-methyl-ethyl)-4-[(3-methyl-1-phenyl-pyrazole-4-carbonyl)amino]pyridine-2-carboxamide]: the “% Potentiation @ 3.33 μM Avg” value is on record as 55%.

Turning to `CC(C)(C#N)NC(=O)c1cc(NC(=O)c2cccnc2Oc2ccccc2)ccn1` [Example 83.25, N-[2-[(1-Cyano-1-methyl-ethyl)carbamoyl]-4-pyridyl]-2-phenoxy-pyridine-3-carboxamide], the “% Potentiation @ 3.33 μM Avg” value was -8%.

For `Cc1cc(C(=O)Nc2ccnc(C(=O)NC(C)(C)C#N)c2)c(C)n1Cc1cccs1` [Example 83.26, N-(1-Cyano-1-methyl-ethyl)-4-[[2,5-dimethyl-1-(2-thienylmethyl)pyrrole-3-carbonyl]amino]pyridine-2-carboxamide], the “% Potentiation @ 3.33 μM Avg” value stood at 95%.

With `COc1ccccc1-c1cc(C(=O)Nc2ccnc(C(=O)NC(C)(C)C#N)c2)no1` [Example 83.27, N-[2-[(1-Cyano-1-methyl-ethyl)carbamoyl]-4-pyridyl]-5-(2-methoxyphenyl)isoxazole-3-carboxamide], the “% Potentiation @ 3.33 μM Avg” value was -11%.

On to `Cc1nc(-c2ccccc2)sc1C(=O)Nc1ccnc(C(=O)NC(C)(C)C#N)c1` [Example 83.28, N-[2-[(1-Cyano-1-methyl-ethyl)carbamoyl]-4-pyridyl]-4-methyl-2-phenyl-thiazole-5-carboxamide], for which the “% Potentiation @ 3.33 μM Avg” value is listed as 20%.

Take `CC(=O)Nc1ccc(C(=O)Nc2ccnc(C(=O)NC(C)(C)C#N)c2)cc1` [Example 83.29, 4-[(4-Acetamidobenzoyl)amino]-N-(1-cyano-1-methyl-ethyl)pyridine-2-carboxamide]: the “% Potentiation @ 3.33 μM Avg” value is reported as -9%.

Consider `CC(C)(C#N)NC(=O)c1cc(NC(=O)c2cccc3ncsc23)ccn1` [Example 83.30, N-[2-[(1-Cyano-1-methyl-ethyl)carbamoyl]-4-pyridyl]-1,3-benzothiazole-7-carboxamide], for which the “% Potentiation @ 3.33 μM Avg” value is recorded as 93%.

For the compound `CC(CC(=O)Nc1ccnc(C(=O)NC(C)(C)C#N)c1)c1ccc(F)cc1` (stereo not drawn) [Example 83.31, N-(1-Cyano-1-methyl-ethyl)-4-[3-(4-fluorophenyl)butanoylamino]pyridine-2-carboxamide], the “% Potentiation @ 3.33 μM Avg” value is on record as 78%.

On to `Cn1c(=O)c(C(=O)Nc2ccnc(C(=O)NC(C)(C)C#N)c2)cc2ccccc21` [Example 83.32, N-[2-[(1-Cyano-1-methyl-ethyl)carbamoyl]-4-pyridyl]-1-methyl-2-oxo-quinoline-3-carboxamide], for which the “% Potentiation @ 3.33 μM Avg” value was -16%.

On to `CC(C)(C)NC(=O)c1cc(NC(=O)Cc2cc(Cl)ccc2O)ncn1` [Example 85, N-tert-Butyl-6-[[2-(5-chloro-2-hydroxy-phenyl)acetyl]amino] pyrimidine-4-carboxamide], for which the “% Potentiation @ 3.33 μM Avg” value was 155%.

Consider `COCC(C#N)(COC)NC(=O)c1cc(NC(=O)Cc2cc(Cl)ccc2O)ccn1` [Example 86, 4-[[2-(5-Chloro-2-hydroxy-phenyl)acetyl]amino]-N-[1-cyano-2-methoxy-1-(methoxymethyl)ethyl]pyridine-2-carboxamide], for which the “% Potentiation @ 3.33 μM Avg” value is 593%.

Turning to `CC(C)(C)NC(=O)c1cc(NC(=O)Cc2ccc(C(C)(C)C)c(N)c2)ccn1` [Example 87, 4-[[2-(3-Amino-4-tert-butyl-phenyl)acetyl]amino]-N-tert-butyl-pyridine-2-carboxamide], the “% Potentiation @ 3.33 μM Avg” value is given as 332%.

Turning to `CC(C)(C)NC(=O)c1cc(NC(=O)Cc2ccc(C(C)(C)C)cc2N)ccn1` [Example 88, 4-[[2-(2-Amino-4-tert-butyl-phenyl)acetyl]amino]-N-tert-butyl-pyridine-2-carboxamide], the “% Potentiation @ 3.33 μM Avg” value was 270%.

As to `CC(C)(C)NC(=O)c1cc(NC(=O)Cc2ccc(C(C)(C)C)c(O)c2)ccn1` [Example 89, N-tert-Butyl-4-[[2-(4-tert-butyl-3-hydroxy-phenyl)acetyl]amino]pyridine-2-carboxamide], the “% Potentiation @ 3.33 μM Avg” value was found to be 366%.

The assay is the same for the next values; noted with them: calculated EC50, Qpatch TMEM16A current at +70 mV.
`CC(C)(C)NC(=O)c1cc(NC(=O)Cc2cc(Cl)ccc2O)ncn1` [Example 85, N-tert-Butyl-6-[[2-(5-chloro-2-hydroxy-phenyl)acetyl]amino] pyrimidine-4-carboxamide]: the concentration for a half-maximal effect (EC50) was 350 nM.

For the compound `COCC(C#N)(COC)NC(=O)c1cc(NC(=O)Cc2cc(Cl)ccc2O)ccn1` [Example 86, 4-[[2-(5-Chloro-2-hydroxy-phenyl)acetyl]amino]-N-[1-cyano-2-methoxy-1-(methoxymethyl)ethyl]pyridine-2-carboxamide], the concentration for a half-maximal effect (EC50) was 350 nM.

With `CC(C)(C)NC(=O)c1cc(NC(=O)Cc2ccc(C(C)(C)C)c(N)c2)ccn1` [Example 87, 4-[[2-(3-Amino-4-tert-butyl-phenyl)acetyl]amino]-N-tert-butyl-pyridine-2-carboxamide], the EC50 was 220 nM.

For the compound `CC(C)(C)NC(=O)c1cc(NC(=O)Cc2ccc(C(C)(C)C)cc2N)ccn1` [Example 88, 4-[[2-(2-Amino-4-tert-butyl-phenyl)acetyl]amino]-N-tert-butyl-pyridine-2-carboxamide], the EC50 was 240 nM.

As for `CC(C)(C)NC(=O)c1cc(NC(=O)Cc2ccc(C(C)(C)C)c(O)c2)ccn1` [Example 89, N-tert-Butyl-4-[[2-(4-tert-butyl-3-hydroxy-phenyl)acetyl]amino]pyridine-2-carboxamide], the EC50 was 90 nM.

The record behind these values is patent publication US20200361871A1 (Enterprise Therapeutics Ltd., priority 2018, published 2020).
